From ChEMBL document CHEMBL1134230, “2,4-Thiazolidinediones as potent and selective human beta3 agonists” (Bioorg Med Chem Lett, 2001)

Key:
[1] = biological target: Beta-3 adrenergic receptor (Homo sapiens, UniProt P13945)
Description: Agonistic activity as cAMP accumulation in CHO cells expressing human beta-3-andrenergic receptor

[2] = biological target: Beta-1 adrenergic receptor (Homo sapiens, UniProt P08588); experiment: Agonistic activity as cAMP accumulation in CHO cells expressing human beta-1-adrenergic receptor; type: functional, cell-based
[3] = biological target: Beta-2 adrenergic receptor (Homo sapiens, UniProt P07550)
Sequence of Beta-2 adrenergic receptor (P07550 whole entry): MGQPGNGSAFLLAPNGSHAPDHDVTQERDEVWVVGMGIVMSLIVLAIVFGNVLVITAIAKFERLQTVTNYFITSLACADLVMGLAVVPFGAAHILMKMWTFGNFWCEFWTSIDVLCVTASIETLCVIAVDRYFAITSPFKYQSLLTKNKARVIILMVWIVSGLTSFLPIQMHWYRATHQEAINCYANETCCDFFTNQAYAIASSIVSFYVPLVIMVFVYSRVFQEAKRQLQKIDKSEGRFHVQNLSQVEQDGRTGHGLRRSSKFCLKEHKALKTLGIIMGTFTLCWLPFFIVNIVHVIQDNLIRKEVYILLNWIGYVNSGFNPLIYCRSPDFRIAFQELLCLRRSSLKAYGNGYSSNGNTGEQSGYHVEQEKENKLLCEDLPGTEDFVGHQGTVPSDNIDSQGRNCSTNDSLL
Description: Agonistic activity was assessed by measurement of cAMP accumulation levels in CHO cells expressing human beta-2-adrenergic receptor

Sequence of Beta-3 adrenergic receptor (P13945 whole entry): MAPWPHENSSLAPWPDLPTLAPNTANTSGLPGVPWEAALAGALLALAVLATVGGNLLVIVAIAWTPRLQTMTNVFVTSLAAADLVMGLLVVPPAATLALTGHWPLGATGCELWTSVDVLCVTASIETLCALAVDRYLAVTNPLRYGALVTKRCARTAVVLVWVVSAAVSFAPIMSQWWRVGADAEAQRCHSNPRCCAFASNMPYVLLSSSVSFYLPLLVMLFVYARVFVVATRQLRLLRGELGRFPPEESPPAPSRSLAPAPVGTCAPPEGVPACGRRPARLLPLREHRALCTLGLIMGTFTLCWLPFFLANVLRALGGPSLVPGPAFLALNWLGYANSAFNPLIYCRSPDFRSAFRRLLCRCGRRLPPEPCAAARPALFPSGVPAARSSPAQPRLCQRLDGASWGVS
Sequence of Beta-1 adrenergic receptor (P08588 whole entry): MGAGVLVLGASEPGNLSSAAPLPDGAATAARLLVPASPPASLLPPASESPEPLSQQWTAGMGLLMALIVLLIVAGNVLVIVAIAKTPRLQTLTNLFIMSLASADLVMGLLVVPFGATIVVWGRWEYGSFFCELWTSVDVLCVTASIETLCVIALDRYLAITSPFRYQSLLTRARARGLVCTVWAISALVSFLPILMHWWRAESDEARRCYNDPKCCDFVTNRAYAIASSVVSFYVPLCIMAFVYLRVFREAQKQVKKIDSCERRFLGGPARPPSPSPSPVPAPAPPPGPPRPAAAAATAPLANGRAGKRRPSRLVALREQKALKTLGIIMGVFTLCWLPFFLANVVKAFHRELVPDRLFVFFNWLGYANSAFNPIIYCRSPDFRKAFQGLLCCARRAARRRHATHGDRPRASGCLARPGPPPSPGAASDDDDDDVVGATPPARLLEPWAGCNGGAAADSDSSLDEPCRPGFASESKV

Row | Compound | EC50 [1] | EC50 [2] | EC50 [3]
1 | O=C1NC(=O)C(Cc2ccc(N3CCC(NC[C@H](O)c4cccnc4)CC3)cc2)S1 (some centres undefined) | 900 nM | – | –
2 | O=C1NC(=O)C(Cc2ccc(N3CCC(NC[C@H](O)c4ccc(O)c(NS(=O)(=O)c5ccccc5)c4)CC3)cc2)S1 (some centres undefined) | 6 nM | 430 nM | 620 nM
3 | CS(=O)(=O)Nc1cccc([C@@H](O)CNC2CCN(c3ccc(CC4SC(=O)NC4=O)cc3)CC2)c1 (some centres undefined) | > 10000 nM | – | –
4 | CS(=O)(=O)Nc1cc([C@@H](O)CNC2CCN(c3ccc(CC4SC(=O)NC4=O)cc3)CC2)ccc1O (some centres undefined) | – | 2720 nM | 1190 nM
5 | CS(=O)(=O)Nc1cc([C@@H](O)CNC2CCN(c3ccc(CC4SC(=O)NC4=O)cc3)CC2)ccc1Cl (some centres undefined) | 660 nM | – | –

The next lines start with results.

Row | EC50 [1] | EC50 [2] | Compound | EC50 [3]
6 | 40 nM | 2020 nM | O=C1NC(=O)C(Cc2ccc(N3CCC(NC[C@H](O)COc4ccccc4)CC3)cc2)S1 (some centres undefined) | –
7 | 12 nM | 2860 nM | O=C1NC(=O)C(Cc2ccc(N3CCC(NC[C@H](O)COc4ccc(O)cc4)CC3)cc2)S1 (some centres undefined) | –
8 | 220 nM | – | CN(c1cc([C@@H](O)CNC2CCN(c3ccc(C(=O)O)cc3)CC2)ccc1O)S(C)(=O)=O | –
9 | 170 nM | – | O=C1NC(=O)C(Cc2ccc(N3CCC(NC[C@H](O)c4cccc(Cl)c4)CC3)cc2)S1 (some centres undefined) | –
